Where a SMILES comes first, the peptide text is derived from it. [ ]: non-standard residue; d: D form.

The text below walks through data of ChEMBL document CHEMBL1135684, “Identification of arodyn, a novel acetylated dynorphin A-(1-11) analogue, as a kappa opioid receptor antagonist” (J Med Chem, 2002).

Test [1] deals with Kappa-type opioid receptor (Homo sapiens, UniProt P41145). The test can be described thus: Binding affinity towards Opioid receptor kappa 1 using [3H]diprenorphine as radioligand expressed on chinese hamster ovary (CHO) cells. It counts as cell-based.
Chain of Kappa-type opioid receptor (P41145 whole entry): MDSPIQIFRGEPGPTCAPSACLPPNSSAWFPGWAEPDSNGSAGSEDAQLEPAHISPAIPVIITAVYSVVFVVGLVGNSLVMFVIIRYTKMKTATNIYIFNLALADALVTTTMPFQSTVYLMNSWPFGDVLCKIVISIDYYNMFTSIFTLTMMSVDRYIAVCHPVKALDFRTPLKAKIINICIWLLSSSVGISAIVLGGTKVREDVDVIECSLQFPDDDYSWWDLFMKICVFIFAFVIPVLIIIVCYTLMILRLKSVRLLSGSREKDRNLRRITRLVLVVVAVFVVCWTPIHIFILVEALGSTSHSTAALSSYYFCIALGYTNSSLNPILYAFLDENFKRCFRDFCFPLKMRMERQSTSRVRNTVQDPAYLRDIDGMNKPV
In test [2] the target is Mu-type opioid receptor (Homo sapiens, UniProt P35372). As to the kind of experiment: Binding affinity towards Opioid receptor mu 1 using [3H]DAMGO as radioligand.
Chain of Mu-type opioid receptor (P35372 whole entry): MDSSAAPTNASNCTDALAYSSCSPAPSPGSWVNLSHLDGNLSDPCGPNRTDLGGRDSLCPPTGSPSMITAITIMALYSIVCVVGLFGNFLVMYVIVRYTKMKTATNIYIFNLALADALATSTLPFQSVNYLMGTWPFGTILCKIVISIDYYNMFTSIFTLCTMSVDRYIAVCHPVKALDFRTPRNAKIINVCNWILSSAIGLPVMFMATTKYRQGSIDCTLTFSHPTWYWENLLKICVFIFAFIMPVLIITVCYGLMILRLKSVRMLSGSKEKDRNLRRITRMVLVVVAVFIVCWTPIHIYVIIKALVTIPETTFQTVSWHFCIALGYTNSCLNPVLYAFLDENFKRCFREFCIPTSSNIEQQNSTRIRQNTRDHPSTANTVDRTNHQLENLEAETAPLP
Test [3] concerns the target Delta-type opioid receptor (Homo sapiens, UniProt P41143). As to the kind of experiment: Binding affinity towards Opioid receptor delta 1 using [3H]DPDPE as radioligand. On the set-up: species or system Cricetulus griseus.

Chain of Delta-type opioid receptor (P41143 whole entry): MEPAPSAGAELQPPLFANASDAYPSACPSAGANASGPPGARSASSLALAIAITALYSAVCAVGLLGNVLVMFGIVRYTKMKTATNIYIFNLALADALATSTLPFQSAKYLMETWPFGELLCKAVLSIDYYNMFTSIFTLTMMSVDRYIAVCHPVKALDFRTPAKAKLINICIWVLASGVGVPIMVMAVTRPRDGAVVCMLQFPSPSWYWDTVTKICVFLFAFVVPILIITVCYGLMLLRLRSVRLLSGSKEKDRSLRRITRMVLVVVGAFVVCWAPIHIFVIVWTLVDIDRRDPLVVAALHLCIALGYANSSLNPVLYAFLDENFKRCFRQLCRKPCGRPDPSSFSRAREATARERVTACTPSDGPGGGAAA

With `CSCC[C@H](NC(=O)[C@H](Cc1ccccc1)NC(=O)[C@H](CCCN=C(N)N)NC(C)=O)C(=O)N[C@@H](Cc1c[nH]c2ccccc12)C(=O)N[C@@H](CCSC)C(=O)N[C@@H](CCCN=C(N)N)C(=O)N[C@@H](CCCN=C(N)N)C(=O)N[C@H](C)C(=O)N[C@@H](CCCN=C(N)N)C(=O)N1CCC[C@H]1C(=O)N[C@@H](CCCCN)C(N)=O` [EXTACET], the Ki – broadly, the dissociation constant of the complex between target and ligand, obtained from inhibition or displacement – in test [1] turned out to be 6.6 nM; in test [2], 1.12 nM.
`CC(=O)N[C@@H](Cc1ccccc1)C(=O)N[C@@H](Cc1ccccc1)C(=O)N[C@@H](Cc1ccccc1)C(=O)N[C@@H](CCCNC(=N)N)C(=O)N[C@@H](CC(C)C)C(=O)N[C@@H](CCCNC(=N)N)C(=O)N[C@@H](CCCNC(=N)N)C(=O)N[C@H](C)C(=O)N[C@@H](CCCNC(=N)N)C(=O)N1CCC[C@H]1C(=O)N[C@@H](CCCCN)C(N)=O` (Ac-FFFRLRR[dA]RPK-NH2): in test [3], the Ki was determined as 5830 nM.
